Measured values reported in paper PMC7725824, “Fused isoselenazolium salts suppress breast cancer cell growth by dramatic increase in pyruvate-dependent mitochondrial ROS production” (Scientific Reports, 2020).

Legend:
[1] = Cytotoxicity assay (MTT), HEKa; format: cell-based, human; conditions: human, HEKa cells (primary epidermal keratinocytes), normal cell line, mean ± S.D., 3 experiments
Procedure: (§1) MCF-7 (human breast adenocarcinoma, estrogen-positive) and 4T1 (mouse carcinoma), as breast cancer cell lines, and H9C2 (rat cardiomyoblasts), NIH 3T3 (mouse fibroblasts), HEKa (primary human epidermal keratinocytes), MDCK (Madin-Darby Canine Kidney) cells, and A7r5 (rat vascular smooth muscle cells), as normal cell lines, were obtained from the American Type Culture Collection [ATCC] collection for use in the current study. All cell lines were cultured in Dulbecco's modified Eagle's medium (DMEM) containing 10% fetal bovine serum (FBS) and 4 mM L-glutamine at 37 °C and 5% CO2.
(§2) Cell viability was assessed by the addition of 3-(4,5-dimethylthiazol-2-yl)-2,5-diphenyltetrazolinium bromide (MTT). Briefly, cells were seeded (2–6 × 10^4 cells/ml) in 96-well plates and allowed to attach for 24 h. Solutions of test compounds were prepared and serially diluted to obtain the appropriate concentrations. The cells were treated with the test compounds at different concentrations (0.032–100 µM) and incubated for 48 h at 37 °C and 5% CO2. Then, the culture medium was removed, and medium containing 0.2 mg/ml MTT was added. After 3 h (37 °C, 5% CO2), the MTT-containing medium was removed, and 200 μl of dimethyl sulfoxide (DMSO) was immediately added to each sample. The absorbance was assessed at 540 nm using a Tecan multiplate reader Infinite 1000 (Austria). The half-maximal inhibitory concentration (IC50) of each compound was calculated using Graph Pad Prism 3.0.

[2] = Cytotoxicity assay (MTT), A7r5; format: cell-based, rat; conditions: rat, A7r5 cells (vascular smooth muscle cells), normal cell line, mean ± S.D., 3 experiments
Procedure: as §1, §2

[3] = system: permeabilized 4T1 cells; assay: High-resolution fluorespirometry (respiration and H2O2 flux); format: cell-based, mouse
Procedure: High-resolution fluorespirometry was performed using an Oxygraph-2 k system (OROBOROS INSTRUMENTS, Austria). All experiments were performed at 37 °C in MiR05 medium (110 mM sucrose, 60 mM K-lactobionate, 0.5 mM EGTA, 3 mM MgCl2, 20 mM taurine, 10 mM KH2PO4, 20 mM HEPES, pH 7.1 at 30 °C, and 0.1% BSA essentially fatty acid free). The medium was reoxygenated when the oxygen concentration dropped to 80 µM. H2O2 flux was simultaneously measured with respirometry in the O2k-Fluorometer using the H2O2-sensitive probe Ampliflu Red (AmR) as described. The H2O2/O flux ratio [%] was calculated as the H2O2 flux/(0.5 O2 flux).
In permeabilized 4T1 cells, pyruvate + malate (5 and 2 mM) or glutamate + malate (10 and 2 mM) were used to determine complex I (CI)-linked LEAK (L) respiration. ADP was added to a concentration of 5 mM to determine the oxidative phosphorylation-dependent respiration (OXPHOS state). Succinate (10 mM, complex II (CII) substrate) was then added to reconstitute convergent CI&II-linked respiration. Rotenone (0.5 µM, an inhibitor of complex I) and antimycin A (2.5 µM, an inhibitor of complex III) were added to determine the CII-linked OXPHOS capacity and residual oxygen consumption (ROX), respectively. Compound 6 was added to permeabilized cells after the addition of the respective substrates in the OXPHOS state (titration experiment) or in the LEAK state. In addition, compounds 3, 6 and 7 were tested at 1 µM in the OXPHOS coupling protocol in the LEAK state. The OXPHOS coupling efficiency was calculated as: 1-Resp.rateLEAKstate/Resp.rateOXPHOSstate
The substrate-dependent flux control factor was calculated as: 1-Resp.ratebeforeadditionofrespectivesubstrate/Resp.rateafteradditionofrespectivesubstrate

[4] = system: CL/DOPC liposomes (cardiolipin); assay: 1H NMR interaction study with CL-containing liposomes; format: binding; conditions: 0.4 mM 6, 1.2 mM DOPC, 0.4 mM CL, 25 °C
Procedure: Cardiolipin (CL) liposomes for NMR analysis were prepared by the thin-film method followed by sonication and extrusion. […] The obtained lipid thin film was dried in vacuo overnight. Then, the dry lipid film was rehydrated in D18 HEPES buffer (20 mM, pH 7.4, 10% D2O) and gently vortexed, and the samples were sonicated for 30 min in a bath-type sonicator. The obtained sample of liposomes was extruded 21 times through a 100-nm pore polycarbonate filter (Nucleopore Corp., CA). Similarly, liposomes from DOPC only were prepared.
To study the interactions of compound 6 with CL and DOPC liposomes, a stock solution of 6 (2 mM) in D18 HEPES buffer (20 mM, pH 7.4, 10% D2O) was added to CL/DOPC or DOPC liposome dispersions to reach 400:1200:400 µM CL/DOPC/6 solution or 1600:400 µM DOPC/6 solution followed by gentle vortexing for 30 s.
NMR spectra were acquired on a 600‐MHz Bruker Avance NEO spectrometer equipped with a 5 mm QCI-F quadruple resonance pulsed‐field‐gradient cryoprobe. The temperature was calibrated against methanol and set to 25 °C. Chemical shifts were referenced to the water resonance at 4.77 ppm with respect to 4,4-dimethyl-4-silapentane-1-sulfonic acid (DSS). The samples contained […] 6 in 90% H2O and 10% D2O with and without DOPC or CL/DOPC liposomes. The NMR data were processed and analyzed using MestReNova software.

[5] = system: DOPC liposomes; assay: Isothermal titration calorimetry with DOPC liposomes; format: binding; conditions: 25 °C, 200 µM total lipid
Procedure: The obtained large multilamellar liposomes were sonicated in a bath-type sonicator (Cole Parmer Ultrasonic Cleaner 8891CPX (USA)) at room temperature for 30 min and then extruded (LiposoFast-Basic, Avestin) through a 100 nm polycarbonate filter 21 times. The quality of the resulting small unilamellar vesicles was determined by dynamic light scattering (DLS) (Zetasizer Nano ZSP, Malvern Panalytical Ltd., UK).
The experiments were carried out using an isothermal titration calorimeter (MicroCal iTC200, Malvern Panalytical Ltd., UK). To carry out the titration, the injection syringe was filled with a solution of compound 6 (100 µM), and the reaction cell was filled with liposome dispersion (200 µM of total lipid). The experiments were performed at 25 and 37 °C with a stirring speed of 750 rpm. […] The data consisted of a series of heat flows as a function of time, which were collected automatically and analyzed by Origin 7 software (OriginLab Corporation, Northampton, USA, www.originlab.com, 2002). The changes in enthalpy (ΔH) due to the interactions between 6 and the liposome dispersions were recorded, and then stoichiometry (N), the association constant (KA), the dissociation constant (KD), entropy (ΔS) and the Gibbs free energy (ΔG) were calculated. The obtained sigmoidal titration curves were evaluated assuming independent saturable binding sites in the outer vesicle interface. […]

[6] = 1 µM, pyruvate-dependent OXPHOS state
[7] = titration, pyruvate + malate and glutamate + malate, OXPHOS

SMILES: OC1(c2[se][n+]3ccsc3c2Br)CCCCC1 [Compound 6, 3-bromo-2-(1-hydroxycyclohexyl)[1,2]selenazolo[2,3-b]thiazolium chloride]
- IC50 at 48 h [1]: 2840 ± 80 nM
- IC50 at 48 h [2]: 1970 ± 270 nM
- H2O2 production and H2O2/O ratio in the CI&II-linked OXPHOS state ([3]; 1 µM): significant increases
- OXPHOS coupling efficiency ([3]; 1 µM): significant decrease
- respiration rate in the OXPHOS state with pyruvate and malate ([3]; 1 µM): decreased
- increase in H2O2/O ratio [3, 6]: 2.8 fold
- increase in H2O2 production [3, 6]: 2.3 fold
- mitochondrial function in the CII-linked OXPHOS state ([3]; titration): no significant changes
- H2O2 production with complex I (NADH-linked) substrates [3, 7]: increased
- mitochondrial respiration rate with complex I (NADH-linked) substrates [3, 7]: inhibited
- 1H NMR resonances in the presence of CL-containing liposomes [4]: broadened
- ITC binding to DOPC liposomes [5]: no signs of binding
